Values after ≈ are worked out from the molar mass of the structure shown.
What was measured:
[1] = Compound distribution in plasma and ocular tissues after single ocular dose in Dutch belted rabbits; assay type: in vivo; details: eye drops 1 mg/mL (0.05 mg/eye), 0.5 h, 4 h or 8 h post-dose
From the text: Age-related macular degeneration and diabetic retinopathy are associated with neovascularization in the posterior eye segment Due to the corneal and conjunctival barrier, one of the main problems with topical eye drops used to treat the posterior eye segment disorders is the low-efficiency delivery of the drug to the posterior eye segment. Therefore, it is important to measure the distribution of the compound in an ophthalmic formulation in several major ocular tissues. […] Dutch belted rabbits were used in this experiment. […]
In this experiment, male Dutch belted rabbits weighed 1.5-2.5 kg were purchased from Pizhou Dongfang Breeding Co., Ltd. Any operation on the laboratory animals in this experiment was in compliance with the relevant SOP requirements of the experimental operation of 3D BioOptima, Suzhou, China, and had been approved by the Institutional Animal Care and Use Committee (IACUC) of 3D BioOptima. […] The prepared dose formulations were freshly prepared on the day of administration, samples were retained and the actual concentration of the dose formulation was determined.
On the day of the experiment, animals were administrated at 1 mg/mL (0.05 mg/eye, 50 μL/eye). […] The concentration of each analyte in the rabbit ocular tissues and plasma obtained in this experiment was determined by LC-MS/MS. […]

[2] = statement in the summary; cited from earlier work
KDR (VEGFR2) = KDR (VEGFR2) (Homo sapiens (Human), UniProt P35968); test: Kinase inhibition, Mobility Shift Assay (VEGFR2); assay type: biochemical
How it was run: (§1)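 Mobility shift assay: each kinase preincubated 10 min at room temperature with compound, then reacted with FAM-labeled peptide, MgCl2 and ATP at 28° C. for varying times. Substrate-to-product conversion read on Caliper; % inhibition normalised to no-kinase and DMSO controls, and IC50 fitted.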

EGFR = EGFR (Homo sapiens (Human), UniProt P00533); test: Kinase inhibition, Mobility Shift Assay (EGFR); assay type: biochemical
How it was run: as §1

FLT1 (VEGFR1) = FLT1 (VEGFR1) (Homo sapiens (Human), UniProt P17948); test: Kinase inhibition, Mobility Shift Assay (VEGFR1); assay type: biochemical
How it was run: as §1

FLT4 (VEGFR3) = FLT4 (VEGFR3) (Homo sapiens (Human), UniProt P35916); test: Kinase inhibition, Mobility Shift Assay (VEGFR3); assay type: biochemical
How it was run: as §1

[3] = target: VEGFR2 autophosphorylation (pVEGFR2) in HUVEC cells (Homo sapiens (Human), UniProt P35968); test: Inhibition of VEGF-induced VEGFR2 autophosphorylation in HUVEC cells (ELISA); assay type: cell-based; details: 50 ng/ml human VEGF, compound 1 h
From the text: Vascular endothelial growth factor receptor 2 (VEGFR2) is a primary receptor for VEGF-induced endothelial cell signaling. After ligand binding, VEGFR2 is autophosphorylated and activated. The main function of signaling from VEGFR2 is to induce vascularization during development and after tissue injury, and to bypass blocked blood vessels. Pathologically, VEGF and VEGFR2 are involved in tumor angiogenesis and vascular leakage. They are considered to be main participants in many different cancers and ocular diseases that accompany pathological neovascularization. This assay measured the ability of the compounds to inhibit VEGF-induced VEGFR2 autophosphorylation (pVEGFR2) in HUVEC cells by using ELISA.
Culture cells in a cell culture flask to reach a fusion degree of 60%-80% before cell inoculation. Dilute the cell suspension to […] with a pre-warmed complete medium. Add 80 μL of the cell suspension to all wells of a 96-well cell plate (Corning-3599); and incubate the plate overnight at 37° C. in the presence of 5% CO2. Dissolve the compound powder to 10 mM with DMSO and store it in a nitrogen cabinet. Compound dilution plate: Add a reference compound Ponatinib or a compound to be tested to a 96 V-well plate (Axygen-WIpp 2280) at concentrations achieved as follows: performing 3-fold gradient dilution starting from 5 mM (5 μL of 10 mM compound solution plus 5 μL of DMSO) for a total of 8 concentration points. […] Transfer 20 μL of the diluted compound from the intermediate plate to a cell plate. Then, incubate the cell plate for 1 h at 37° C. in the presence of 5% CO2. After the compound was treated for 1 h, add 25 μL of 250 ng/ml human VEGF at a final concentration of 50 ng/ml to a 96-well plate; and incubate the plate for 5 min at 37° C. in the presence of 5% CO2, centrifuge the plate for 10 min at 3,000 rpm, remove the medium and wash the cells once with 300 μL of pre-chilled DPBS per well. Then, centrifuge the plate for 10 min at 4,000 rpm, remove DPBS, and add 110 μL of pre-chilled 1× cell lysis buffer per well to the 96-well plate. Shake the plate for 40 min at 4° C. Then, freeze the plate in a refrigerator at −80° C. On the next day, remove the plate from the refrigerator at −80° C., thaw the plate, centrifuge the plate for 10 min at 3500 rpm, and add 100 μL of the supernatant per well to an ELISA plate. Seal the plate and incubate it for 2 h at 37° C. Wash the wells 4 times with 1× wash buffer. Add 100 μL of recombinant detection antibody per well. Seal the plate, incubate the plate for 1 h at 37° C., and repeat the step of plate washing. Add 100 μL of secondary antibody per well. Seal the plate, incubate the plate for 30 min at 37° C., and repeat the step of plate washing. Add 100 μL of TMB (protected from light) per well. Seal the plate, incubate the plate for 30 min at 37° C., and add 100 μL of the stop solution per well. Gently shake for 30 sec, measure the absorbance with a SpectraMax® 340 PC 384 Absorbance Microplate Reader within 30 min, and read an optical density value at 450 nm. Conduct data analysis using XL Fit software:
Conduct curve fitting using the 4 Parameter Logistic Model or Sigmoidal Dose-Response Model:
X indicating the log value of compound concentration, Y indicating the inhibition ratio (% inhibition), Top indicating the readout of the negative control wells, and bottom indicating the readout of the positive control well.

melanin = test: Binding capacity of compounds to melanin; assay type: in vitro ADME; details: Sepia officinalis (cuttlefish), melanin suspension (1 mg/mL); 1 mg/mL melanin suspension in PBS pH 7.4, 2 μM compound, 2 h at 37° C.; read-out: Fu % (percentage of free drug, not bound to melanin)
How it was run: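 Compound at 2 μM final incubated with 1 mg/mL Sepia melanin suspension in PBS pH 7.4 for 2 h at 37 °C with shaking; blank control in PBS with 0.1% BSA. Supernatant concentrations measured by LC-MS/MS; bound fraction from melanin versus control samples, free fraction as 100 − Fb.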

[4] = Thermodynamic solubility assay; details: aqueous buffer, pH 2, aqueous buffer, thermodynamic from solid
Method: After sonication for 10 min, fix them on a shaker and shaking for 8 h at room temperature. After shaking, sonicate for 10 min and centrifuge for 15 min at 13,000 rpm. Pipette 0.1 mL of supernatant into a new tube, shake and rinse it with 5 mL, and discard the liquid. Transfer 0.5 mL of the supernatant again to a new tube, centrifuge it for 15 min at 13,000 rpm, then collect the supernatant (if necessary, dilute with water) and analyze it by LC-MS.
The sample concentrations at 3-5 points are subjected to fitting and reticle for quantification.

Chain of FLT1 (VEGFR1) (P17948 27-1338): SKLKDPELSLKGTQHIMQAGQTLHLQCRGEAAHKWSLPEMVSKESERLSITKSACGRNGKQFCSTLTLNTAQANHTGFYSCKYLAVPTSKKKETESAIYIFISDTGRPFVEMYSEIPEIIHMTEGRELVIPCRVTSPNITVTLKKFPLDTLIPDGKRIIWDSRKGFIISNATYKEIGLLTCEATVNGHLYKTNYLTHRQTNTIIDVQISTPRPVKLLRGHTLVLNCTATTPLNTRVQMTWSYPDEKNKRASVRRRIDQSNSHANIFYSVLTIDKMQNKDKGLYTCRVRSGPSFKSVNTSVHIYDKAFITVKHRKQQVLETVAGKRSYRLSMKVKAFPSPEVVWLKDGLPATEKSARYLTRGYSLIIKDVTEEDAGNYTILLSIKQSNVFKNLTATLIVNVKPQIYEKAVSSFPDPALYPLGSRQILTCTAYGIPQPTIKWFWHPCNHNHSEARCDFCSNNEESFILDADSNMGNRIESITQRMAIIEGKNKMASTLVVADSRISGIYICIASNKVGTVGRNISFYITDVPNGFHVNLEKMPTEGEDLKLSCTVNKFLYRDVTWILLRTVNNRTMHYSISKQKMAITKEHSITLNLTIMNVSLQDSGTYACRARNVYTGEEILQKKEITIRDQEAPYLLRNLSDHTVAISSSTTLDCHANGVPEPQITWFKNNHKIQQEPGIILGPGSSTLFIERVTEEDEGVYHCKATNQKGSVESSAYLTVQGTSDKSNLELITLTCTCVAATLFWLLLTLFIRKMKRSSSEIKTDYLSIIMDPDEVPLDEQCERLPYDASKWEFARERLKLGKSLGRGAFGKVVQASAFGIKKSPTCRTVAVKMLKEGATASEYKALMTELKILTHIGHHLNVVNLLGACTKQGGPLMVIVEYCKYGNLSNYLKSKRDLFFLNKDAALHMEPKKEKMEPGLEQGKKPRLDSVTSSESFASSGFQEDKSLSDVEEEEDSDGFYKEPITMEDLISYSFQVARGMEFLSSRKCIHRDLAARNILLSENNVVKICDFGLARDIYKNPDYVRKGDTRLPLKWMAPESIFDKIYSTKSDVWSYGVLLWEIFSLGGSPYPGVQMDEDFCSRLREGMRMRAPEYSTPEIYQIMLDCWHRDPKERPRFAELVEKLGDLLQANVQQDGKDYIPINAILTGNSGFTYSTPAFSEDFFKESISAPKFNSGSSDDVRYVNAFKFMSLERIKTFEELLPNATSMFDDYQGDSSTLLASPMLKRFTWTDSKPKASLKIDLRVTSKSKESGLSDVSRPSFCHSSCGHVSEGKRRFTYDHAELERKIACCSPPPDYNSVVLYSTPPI
Chain of EGFR (P00533 25-1210): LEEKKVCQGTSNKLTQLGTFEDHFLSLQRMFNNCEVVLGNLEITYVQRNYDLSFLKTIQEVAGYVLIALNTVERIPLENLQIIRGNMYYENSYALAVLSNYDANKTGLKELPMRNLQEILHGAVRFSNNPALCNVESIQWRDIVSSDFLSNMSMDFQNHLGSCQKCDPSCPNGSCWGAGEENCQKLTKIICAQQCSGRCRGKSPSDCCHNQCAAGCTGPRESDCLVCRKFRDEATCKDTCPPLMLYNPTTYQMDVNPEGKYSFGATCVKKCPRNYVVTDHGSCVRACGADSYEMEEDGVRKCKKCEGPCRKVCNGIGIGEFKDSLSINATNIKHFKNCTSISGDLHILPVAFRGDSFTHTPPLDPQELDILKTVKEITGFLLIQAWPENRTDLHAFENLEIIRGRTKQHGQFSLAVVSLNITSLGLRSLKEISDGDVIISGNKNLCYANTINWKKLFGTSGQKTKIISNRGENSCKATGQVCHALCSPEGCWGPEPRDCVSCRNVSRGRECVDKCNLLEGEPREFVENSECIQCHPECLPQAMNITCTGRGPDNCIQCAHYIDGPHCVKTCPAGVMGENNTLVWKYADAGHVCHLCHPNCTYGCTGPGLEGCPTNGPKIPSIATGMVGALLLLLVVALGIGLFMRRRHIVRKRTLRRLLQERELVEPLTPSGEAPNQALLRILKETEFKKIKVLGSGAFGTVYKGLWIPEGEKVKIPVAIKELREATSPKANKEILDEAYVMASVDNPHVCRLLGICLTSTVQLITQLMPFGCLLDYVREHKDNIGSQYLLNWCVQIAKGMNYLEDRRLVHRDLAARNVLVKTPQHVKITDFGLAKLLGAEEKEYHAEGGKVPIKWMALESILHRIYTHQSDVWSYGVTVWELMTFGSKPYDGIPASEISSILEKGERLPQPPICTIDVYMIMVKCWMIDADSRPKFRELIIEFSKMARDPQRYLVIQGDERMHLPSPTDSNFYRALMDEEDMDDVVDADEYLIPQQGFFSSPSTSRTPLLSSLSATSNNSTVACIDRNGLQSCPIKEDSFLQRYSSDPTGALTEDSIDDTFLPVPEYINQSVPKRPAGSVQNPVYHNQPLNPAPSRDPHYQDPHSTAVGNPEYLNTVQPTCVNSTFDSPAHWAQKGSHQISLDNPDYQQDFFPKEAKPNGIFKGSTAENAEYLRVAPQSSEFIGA
Chain of VEGFR2 autophosphorylation (pVEGFR2) in HUVEC cells (P35968 20-1356): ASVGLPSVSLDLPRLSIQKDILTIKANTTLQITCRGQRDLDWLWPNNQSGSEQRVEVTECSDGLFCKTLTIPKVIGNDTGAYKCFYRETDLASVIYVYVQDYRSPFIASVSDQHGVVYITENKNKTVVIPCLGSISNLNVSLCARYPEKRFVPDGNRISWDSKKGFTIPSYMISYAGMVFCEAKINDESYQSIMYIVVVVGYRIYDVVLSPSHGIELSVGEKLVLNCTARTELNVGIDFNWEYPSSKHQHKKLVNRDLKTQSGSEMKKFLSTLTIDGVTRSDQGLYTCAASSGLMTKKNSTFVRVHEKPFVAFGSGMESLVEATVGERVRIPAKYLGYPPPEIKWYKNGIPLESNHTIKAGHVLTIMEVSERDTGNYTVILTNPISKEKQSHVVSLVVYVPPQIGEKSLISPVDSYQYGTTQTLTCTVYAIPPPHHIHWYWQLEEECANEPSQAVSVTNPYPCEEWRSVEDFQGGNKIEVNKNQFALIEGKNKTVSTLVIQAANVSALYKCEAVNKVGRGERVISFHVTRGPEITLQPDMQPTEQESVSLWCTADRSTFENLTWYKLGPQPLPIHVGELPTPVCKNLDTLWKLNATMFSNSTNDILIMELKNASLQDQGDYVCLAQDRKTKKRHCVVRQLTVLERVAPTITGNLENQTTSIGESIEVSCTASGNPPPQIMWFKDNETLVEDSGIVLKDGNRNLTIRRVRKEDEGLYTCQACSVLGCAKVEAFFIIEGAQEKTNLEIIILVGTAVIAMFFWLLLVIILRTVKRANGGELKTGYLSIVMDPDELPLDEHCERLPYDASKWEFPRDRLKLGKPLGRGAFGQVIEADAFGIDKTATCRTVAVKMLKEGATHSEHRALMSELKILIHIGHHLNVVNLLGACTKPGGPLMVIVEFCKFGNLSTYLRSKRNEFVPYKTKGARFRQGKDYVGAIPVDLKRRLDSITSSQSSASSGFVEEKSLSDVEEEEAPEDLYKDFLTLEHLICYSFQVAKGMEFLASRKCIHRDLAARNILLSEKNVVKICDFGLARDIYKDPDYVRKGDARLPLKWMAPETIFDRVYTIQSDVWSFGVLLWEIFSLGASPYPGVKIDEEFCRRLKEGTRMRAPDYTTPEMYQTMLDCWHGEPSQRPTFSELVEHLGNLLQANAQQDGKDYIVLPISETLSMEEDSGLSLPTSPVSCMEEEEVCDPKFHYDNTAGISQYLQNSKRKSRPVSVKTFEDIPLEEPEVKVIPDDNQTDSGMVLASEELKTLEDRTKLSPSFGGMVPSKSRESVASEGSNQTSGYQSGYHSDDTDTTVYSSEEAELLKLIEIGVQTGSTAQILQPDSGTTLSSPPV
Chain of KDR (VEGFR2) (P35968 790-1356): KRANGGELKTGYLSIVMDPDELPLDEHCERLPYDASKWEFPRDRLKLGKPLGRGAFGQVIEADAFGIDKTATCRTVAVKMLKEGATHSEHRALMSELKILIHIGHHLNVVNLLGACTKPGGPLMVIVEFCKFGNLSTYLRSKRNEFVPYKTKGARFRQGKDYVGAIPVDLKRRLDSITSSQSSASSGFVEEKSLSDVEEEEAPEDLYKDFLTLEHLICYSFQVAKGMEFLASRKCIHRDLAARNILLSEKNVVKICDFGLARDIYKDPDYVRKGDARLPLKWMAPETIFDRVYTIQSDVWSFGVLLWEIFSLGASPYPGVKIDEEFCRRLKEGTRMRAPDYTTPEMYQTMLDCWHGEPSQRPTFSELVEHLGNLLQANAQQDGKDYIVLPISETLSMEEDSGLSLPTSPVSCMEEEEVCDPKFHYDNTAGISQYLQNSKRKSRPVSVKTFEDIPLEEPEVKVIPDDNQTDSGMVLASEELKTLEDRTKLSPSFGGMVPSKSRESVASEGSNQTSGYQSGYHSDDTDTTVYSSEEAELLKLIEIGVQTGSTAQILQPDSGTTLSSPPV

Row | Compound | drug concentration in retina [1] | drug concentration in retina ([1]; listed as axitinib) | IC50 (KDR (VEGFR2)) | IC50 (EGFR) | IC50 (FLT1 (VEGFR1)) | IC50 (FLT4 (VEGFR3)) | IC50 [3] | fraction unbound at 2 h, 2 μM (melanin) | solubility at 8 h [4] | solubility [2]
1 | CNC(=O)c1ccccc1Sc1ccc2c(/C=C/c3ccc(OCCN4CCCC4)cn3)n[nH]c2c1 [Compound I-6, N-methyl-2-({3-[(E)-2-{5-[2-(pyrrolidin-1-yl)ethoxy]pyridin-2-yl}vinyl]-1H-indazol-6-yl}thio)benzamide] | – | – | 1 to 10 nM | 6000 to 60000 nM | ≤ 1 nM | 1 to 10 nM | 1 to 5 nM | 0.01 to 0.05 | – | –
2 | CNC(=O)c1ccccc1Sc1ccc2c(/C=C/c3ccc(OCC4CCCN4)cn3)n[nH]c2c1 (centres unmarked) [Compound I-14, N-methyl-2-({3-[(E)-2-{5-[(pyrrolidin-2-yl)methoxy]pyridin-2-yl}vinyl]-1H-indazol-6-yl}thio)benzamide] | – | – | 1 to 10 nM | 6000 to 60000 nM | 1 to 10 nM | 1 to 10 nM | – | 0.01 to 0.05 | 46.8 µg/mL (≈ 96.4 µM) | –
3 | CNC(=O)c1ccccc1Sc1ccc2c(/C=C/c3cc(OCCN4CCCC4)ccn3)n[nH]c2c1 [Compound I-20, N-methyl-2-({3-[(E)-2-{4-[2-(pyrrolidin-1-yl)ethoxy]pyridin-2-yl}vinyl]-1H-indazol-6-yl}thio)benzamide] | – | – | 10 to 100 nM | 6000 to 60000 nM | 10 to 100 nM | 10 to 100 nM | 1 to 5 nM | 0.01 to 0.05 | – | –
4 | CN(C)Cc1ccc(/C=C/c2n[nH]c3cc(Sc4ccccc4C(=O)NC4CC4)ccc23)nc1 [Compound I-40, N-cyclopropyl-2-({3-[(E)-2-{5-[(dimethylamino)methyl]pyridin-2-yl}vinyl]-1H-indazol-6-yl}thio)benzamide] | – | – | ≤ 1 nM | 6000 to 60000 nM | ≤ 1 nM | 1 to 10 nM | ≤ 1 nM | 0.01 to 0.05 | – | –
5 | CNC(=O)c1cc(F)ccc1Sc1ccc2c(/C=C/c3cnn(CCCN4CCCC4)c3)n[nH]c2c1 [Compound I-106] | – | – | 1 to 10 nM | 6000 to 60000 nM | – | – | – | > 0.05 | 1580 µg/mL (≈ 3130 µM) | –

Continued, in another order:

Row | drug concentration in retina [1] | drug concentration in retina ([1]; listed as axitinib) | IC50 (KDR (VEGFR2)) | IC50 (EGFR) | IC50 (FLT1 (VEGFR1)) | IC50 (FLT4 (VEGFR3)) | IC50 [3] | fraction unbound at 2 h, 2 μM (melanin) | solubility at 8 h [4] | Compound | solubility [2]
6 | below the lower limit of quantitation | below BLOQ | – | – | – | – | – | – | – | CNC(=O)c1ccccc1Sc1ccc2c(/C=C/c3ccccn3)n[nH]c2c1 [Axitinib] | < 2 micrograms/milliliter
7 | – | – | ≤ 1 nM | 6000 to 60000 nM | ≤ 1 nM | ≤ 1 nM | ≤ 1 nM | 0.01 to 0.05 | – | CNC(=O)c1ccccc1Sc1ccc2c(/C=C/c3ccc(OCCN4CCOCC4)cn3)n[nH]c2c1 [Compound I-3, N-methyl-2-({3-[(E)-2-{5-[2-(morpholin-4-yl)ethoxy]pyridin-2-yl}vinyl]-1H-indazol-6-yl}thio)benzamide] | –
8 | – | – | 1 to 10 nM | 6000 to 60000 nM | 1 to 10 nM | 1 to 10 nM | ≤ 1 nM | 0.01 to 0.05 | – | CNC(=O)c1ccccc1Sc1ccc2c(/C=C/c3cnn(CCN4CCCC4)c3)n[nH]c2c1 [Compound I-9, N-methyl-2-({3-[(E)-2-{1-[2-(pyrrolidin-1-yl)ethyl]-1H-pyrazole-4-yl}vinyl]-1H-indazol-6-yl}thio)benzamide] | –
9 | – | – | 1 to 10 nM | 6000 to 60000 nM | 1 to 10 nM | 1 to 10 nM | ≤ 1 nM | > 0.05 | – | CNC(=O)c1cc(F)ccc1Sc1ccc2c(/C=C/c3ccc(OCCN4CCCC4)cn3)n[nH]c2c1 [Compound I-34, 5-fluoro-N-methyl-2-({3-[(E)-2-{5-[2-(pyrrolidin-1-yl)ethoxy]pyridin-2-yl}vinyl]-1H-indazol-6-yl}thio)benzamide] | –
10 | – | – | 1 to 10 nM | 6000 to 60000 nM | 1 to 10 nM | 1 to 10 nM | ≤ 1 nM | 0.01 to 0.05 | – | CCNC(=O)c1cc(F)ccc1Sc1ccc2c(/C=C/c3ccc(CN4CCCC4)cn3)n[nH]c2c1 [Compound I-97, N-ethyl-5-fluoro-2-({3-[(E)-2-{5-[(pyrrolidin-1-yl)methyl]pyridin-2-yl}vinyl]-1H-indazol-6-yl}thio)benzamide] | –
11 | – | – | ≤ 1 nM | 6000 to 60000 nM | – | – | 1 to 5 nM | > 0.05 | – | CCN(CC)CCc1ccc(/C=C/c2n[nH]c3cc(Sc4ccc(F)cc4C(=O)NC4CC4)ccc23)nc1 [Compound I-109, N-cyclopropyl-2-({3-[(E)-2-{5-[2-(diethylamino)ethyl]pyridin-2-yl}vinyl]-1H-indazol-6-yl}thio)-5-fluorobenzamide] | –
